Our source for the mortality values is patent publication EP2955179A1, “CONDENSED HETEROCYCLIC COMPOUND” (Sumitomo Chemical Company Limited, priority 2013, dated 2014).

The structures appear in SMILES notation. A value given as a limit tells only on which side of the number the result lay.

Common to all, as to type: in vivo
In assay [1] the test system is Culex pipiens pallens. Kind of assay: Test Example 10: Culex pipiens pallens larvae in treated water. The following applies: 24 h, active ingredient concentration 3.5 ppm in ion-exchanged water, last-instar larvae, one day later, read-out: death rate. An excerpt:
20 last-instar larvae of Culex pipiens pallens were released into the solution. One day later, the life and death of the Culex pipiens pallens was examined, and the number of dead insects was counted to calculate the death rate. Death rate (%) = (Number of dead insects/Number of tested insects) × 100 [formula]

For assay [2], the system named is Nilaparvata lugens. Kind of assay: Test Example 4: drench at foot of rice seedling, Nilaparvata lugens larvae released. The following applies: Nilaparvata lugens, soil, 144 h; active ingredient 500 ppm, 5 ml drench at foot of rice seedling, 7 days at 25°C, then third-fourth instar larvae kept 6 days; read-out: control value.
Assay [3] deals with Plutella xylostella. Kind of assay: Test Example 6: spray on cabbage, Plutella xylostella larvae released. The following applies: 120 h, active ingredient 500 ppm, 20 mL/cup sprayed on cabbage, second instar larvae, 25°C for 5 days, read-out: death rate. How it is done: On the other hand, on cabbage at the third leaf stage planted in a polyethylene cup was sprayed, at a rate 20 mL/cup, the test drug solution. After the drug solution was dried, the foliage part was cut off, and then placed in a 50 mL volume cup. Five second instar larvae of Plutella xylostella were released into the cup, and the cup was sealed with a lid. After the cup was kept at 25°C for 5 days, the number of dead insects was counted. The death rate was calculated according to the following equation. Death rate (%) = (Number of dead insects/Number of tested insects) × 100 [formula]

Assay [4] relates to Blattella germanica. Kind of assay: whole plant or invertebrate. The following applies: 144 h, read-out: death rate. How it is done:
The formulations of Compounds of Present Invention 1-11, 1-19 and 1-23 as obtained in Formulation Example 5 were diluted with water, so as to have a concentration of the active ingredient of 500 ppm, to prepare a test drug solution.
(§1) A filter paper having a diameter of 5.5 cm was spread on the bottom of a polyethylene cup having the same diameter and 0.7 ml of the test drug solution was added dropwise onto the filter paper, and 30 mg of sucrose was uniformly placed as bait. Into the polyethylene cup, 2 male imagoes of Blattella germanica were released, and the cup was sealed with a lid. After 6 days, the life and death of Blattella germanica was examined, the number of dead insects was counted, and the death rate was calculated according to the following equation. Death rate (%) = (Number of dead insects/Number of tested insects) × 100 [formula]

Assay [5] relates to Aphis gossypii. Kind of assay: Test Example 1: foliar spray on cucumber seedling inoculated with Aphis gossypii. The following applies: 144 h, active ingredient 500 ppm, 20 ml sprayed on cucumber seedling, six days after spraying, read-out: control value. How it is done: On the other hand, on a cucumber seedling (the first true leaf stage) planted in a plastic cup was inoculated with about 30 Aphis gossypii (whole stage), and left for a day. 20 ml of the test drug solution was sprayed on the seedling. Six days after spraying, the number of surviving Aphis gossypii parasitic on the leaves of the cucumber was examined, and the control value was calculated according to the following equation: Control value (%) = {1-(Cb×Tai)/(Cai×Tb)} × 100 [formula] wherein the symbols represent as follows: • Cb: the number of insects in a non-treated section before treatment • Cai: the number of surviving parasitic insects in a non-treated section on observation • Tb: the number of insects in a treated section before treatment • Tai: the number of surviving parasitic insects in a treated section on observation • wherein the non-treated section refers to a section where the test drug solution prepared by diluting the formulation obtained as in Formulation Example 5 but not containing the compound of the present invention with the same amount of water as in the treated section was sprayed.

The subject of assay [6] is Aphis gossypii. Description: Test Example 2: drench at foot of cucumber seedling, later inoculated with Aphis gossypii. The following applies: soil, 144 h, active ingredient 500 ppm, 5 ml drench at foot of cucumber seedling, 7 days at 25°C, then inoculated and kept 6 days, read-out: control value. How it is done: On the other hand, a cucumber seedling (the second true leaf stage) planted in a plastic cup was drenched at its foot with 5 ml of the test drug solution, and kept in a greenhouse at 25°C for 7 days. On the cucumber leaf surface was inoculated about 30 Aphis gossypii (whole stage), and further kept in the greenhouse for 6 days, then the number of surviving Aphis gossypii parasitic on the leaves of the cucumber was examined, and the control value was calculated according to the following equation: Control value (%) = {1-(Cb×Tai)/(Cai×Tb)} × 100 [formula] wherein the symbols represent as follows: • Cb: the number of insects in a non-treated section before treatment • Cai: the number of surviving parasitic insects in a non-treated section on observation • Tb: the number of insects in a treated section before treatment • Tai: the number of surviving parasitic insects in a treated section on observation • wherein the non-treated section refers to a section where the test drug solution prepared by diluting the formulation obtained as in Formulation Example 5 but not containing the compound of the present invention with the same amount of water as in the treated section was sprayed.

In assay [7] the test system is Musca domestica. Kind of assay: whole plant or invertebrate. The following applies: 24 h, read-out: death rate. The method, then:
The formulations of Compounds of Present Invention 1-1, 1-40 and 1-42 as obtained in Formulation Example 5 were diluted with water, so as to have a concentration of the active ingredient of 500 ppm, to prepare a test drug solution.
as §1, with “10 female” for “2 male”, “Musca domestica” for “Blattella germanica”, “24 hours,” for “6 days,”

The subject of assay [8] is Nilaparvata lugens. Kind of assay: Test Example 3: spray on rice seedling, Nilaparvata lugens larvae released. The following applies: 144 h, active ingredient 500 ppm, 10 ml sprayed on rice seedling, third-fourth instar larvae, after 6 days, read-out: control value.
The test system of assay [9] is Adoxophyes orana fasciata. Kind of assay: Test Example 7: spray on apple tree, Adoxophyes orana fasciata larvae released. The following applies: in Malus domestica, 168 h, active ingredient 500 ppm, 20 mL/cup sprayed on apple tree, first-instar larvae, after 7 days, read-out: death rate. The method, then: The formulations of Compounds of Present Invention 1-1 to 1-6, 1-10, 1-21, 1-28, 1-31 to 1-34, 1-39 and 1-42 as obtained in Formulation Example 5 were diluted with water, so as to have a concentration of the active ingredient of 500 ppm, to prepare a test spray solution.
On the other hand, an apple tree was planted in a plastic cup, and grown until the seventh-eighth true leaf was spread. To the apple tree was sprayed, at a rate of 20 mL/cup, the test drug solution. After the drug solution was dried, 60 first-instar larvae of Adoxophyes orana fasciata were released, and covered with a plastic cup the bottom of which was cut off and on which a filter paper was put, with the plastic cup cover placed upside-down. After 7 days, the number of dead insects was counted, and the death rate was calculated according to the following equation. Death rate (%) = (Number of dead insects/Number of tested insects) × 100 [formula]

`CCN(CC)C(=O)c1cnc(-c2nc3cc(C(F)(F)F)cnc3n2C)c(S(=O)(=O)CC)c1` [Compound of Present Invention 1-11, N,N-diethyl-5-ethylsulfonyl-6-(3-methyl-6-trifluoromethyl-3 H-imidazo[4,5-b]pyridin-2-yl)nicotinamide]: the mortality at 3.5 ppm in [1] was at least 95%. Besides, the mortality at 500 ppm in assay [2] was at least 90%; in assay [3], at least 80%; in assay [4], 100%.
For `CCS(=O)(=O)c1cc(C(=O)NC)cnc1-c1nc2cc(C(F)(F)F)cnc2n1C` [Compound of Present Invention 1-19], the mortality at 500 ppm was at least 90% in assay [5], at least 90% in [6], at least 90% in assay [2] and 100% in assay [4]. In addition, the mortality at 3.5 ppm in assay [1] was at least 95%.
As for `CCS(=O)(=O)c1cc(C(=O)N(C)C)cnc1-c1nc2cc([S+]([O-])C(F)(F)F)ccc2o1` (stereo not drawn) [Compound of Present Invention 1-42], the mortality at 500 ppm in [7] was 100%; in assay [6], at least 90%; in assay [2], at least 90%; in assay [8], at least 90%; in assay [9], at least 90%; in assay [3], at least 80%.
